Laboratory results from US20210221812A1, “MATRINE a-KETOAMINE COMPOUNDS, PREPARATION METHOD THEREFOR AND USE THEREOF” (SHANGHAI XINGYE PHARMACEUTICAL TECHNOLOGY CO., LTD, priority 2018, published 2021).

The compounds below were run on TNF-α (assay: TNF-α activity inhibiting assay (LPS-stimulated peripheral blood, ELISA)). Details: Homo sapiens, compound 20 μM, LPS 10 ng/mL, 6 hours, diluted peripheral blood of healthy volunteers, read-out: TNF-α inhibition rate (%).
Type: cell-based, human
Procedure: Methods: Peripheral blood from healthy volunteers was collected with EDTA anticoagulant tubes. After being diluted 5-fold with 1640 medium (Gibco, USA), the blood was added to 96-well cell culture plates (Costar, USA) and then treated with 10 μL solution of the compound of general formula (I) of the present invention in DMSO (Sigma, USA), the final concentration of the compound was 20 μM with the final concentration of DMSO was 0.2%. After incubation for 60 minutes in an incubator at 37° C. under 5% CO2, 10 μL LPS (Sigma, USA) was added to the reaction system, and the final concentration was 10 ng/mL. After further culturing for 6 hours in the incubator at 37° C. under 5% CO2, the supernatant was collected. The content of TNF-α was determined by ELISA (BD Biosciences, USA). Absorbance was detected at OD450 nm with a microplate reader, with OD 650 nm as reference. The control, a solution containing 0.2% DMSO medium, was as 0% inhibition. Raw data and standard curves were recorded. The four-parameter drug inhibition curve was plotted by XL-fit software and the inhibition rate of each compound was calculated.
For `CC(=O)Nc1cccc2c1CN(C1CC[C@@H]3[C@H]4CCCN5CCC[C@@H](CN3C1=O)[C@@H]45)C2=O` (stereo partly shown) [GJD 33], the inhibition at 20 µM was > 50%. `O=C1c2ccccc2C(=O)N1C1CC[C@@H]2[C@H]3CCCN4CCC[C@H](CN2C1=O)[C@@H]34` (stereo partly shown) [GJD 28] was tested, and the inhibition at 20 µM was > 50%. `Cc1cccc2c1C(=O)N(C1CC[C@@H]3[C@H]4CCCN5CCC[C@@H](CN3C1=O)[C@@H]45)C2=O` (stereo partly shown) [GJD 08] was tested, and the inhibition at 20 µM was > 50%. In the case of `Nc1cccc2c1CN(C1CC[C@@H]3[C@H]4CCCN5CCC[C@@H](CN3C1=O)[C@@H]45)C2=O` (stereo partly shown) [GJD 35], the inhibition at 20 µM is reported as > 50%. In the case of `CS(=O)(=O)Nc1cccc2c1C(=O)N(C1CC[C@@H]3[C@H]4CCCN5CCC[C@@H](CN3C1=O)[C@@H]45)C2=O` (stereo partly shown) [GJD 14], the inhibition at 20 µM is reported as > 50%. For `O=C(NC1CC[C@@H]2[C@H]3CCCN4CCC[C@@H](CN2C1=O)[C@@H]34)c1ccccc1O` (stereo partly shown) [GJD 50], the inhibition at 20 µM was > 50%. With `O=C1CCC[C@@H]2[C@H]3CCCN4CCC[C@@H](CN12)[C@@H]34` [Matrine, matrine] the inhibition at 20 µM was < 50%. `Nc1ccc2c(c1)C(=O)N(C1CC[C@@H]3[C@H]4CCCN5CCC[C@@H](CN3C1=O)[C@@H]45)C2` (stereo partly shown) [GJD 41] was tested, and the inhibition at 20 µM was > 50%. With `O=C1c2cccc(F)c2C(=O)N1C1CC[C@@H]2[C@H]3CCCN4CCC[C@@H](CN2C1=O)[C@@H]34` (stereo partly shown) [GJD 03] the inhibition at 20 µM was > 50%.

What follows are compounds tested on Lovo cells (assay: MTT tumor cell growth inhibition, Lovo). Details: Homo sapiens, 48 h, read-out: Tumors growth-inhibitory activity (IC50) Lovo.
Type: cell-based
Procedure: (§1) Using MTT method to determine the growth inhibition activity of the matrine compounds on Lovo, MGC-803, Mia-paca2, HpeG-2, A549, k562, and Panc-1 cells in vitro. Logarithmic growth phase of Lovo, MGC-803, Mia-paca2, HpeG-2, A549, k562, Panc-1 cells were inoculated into 96-well plates (purchased from Institute of Biochemical Cells, Chinese Academy of Sciences, and cultured according to conventional tumor cell culture methods) at a density of 4×10^4/mL and 180 μL/well; after the cells adhered to the wall, 20 μL of drug solution was added to each well and matined the final drug concentrations were 0.1 μM, 1 μM, 10 μM, 50 μM, 100 μM respectively. After 48 h, 5 mg/mL MTT solution was added (20 μL/well) and maintained in a CO2 incubator for 3-4 h. After that, discarding the supernatant carefully, and DMSO was added (200 μL/well) when the residual liquid was air-dried, and shook for 0.5-1 h until the residual crystals was dissolved. The absorbance OD was measured at 492 nm by a microplate reader. GraphPad Prism 5 software was used to calculate the IC50 value.
`O=C1CCC[C@@H]2[C@H]3CCCN4CCC[C@@H](CN12)[C@@H]34` [Matrine, matrine] gave an IC50 of 50 to 100 µM.

The compounds below were run on MGC-803 cells (assay: MTT tumor cell growth inhibition, MGC-803). Details: Homo sapiens, 48 h, read-out: Tumors growth-inhibitory activity (IC50) MGC-803.
Type: cell-based
Procedure: as §1
In the case of `O=C1CCC[C@@H]2[C@H]3CCCN4CCC[C@@H](CN12)[C@@H]34` [Matrine, matrine], the IC50 is reported as > 100 µM.

These compounds were tested on Mia-paca2 cells (assay: MTT tumor cell growth inhibition, Mia-paca2). Details: Homo sapiens, MIA PaCa-2, 48 h, read-out: Tumors growth-inhibitory activity (IC50) Mia-paca2.
Type: cell-based
Procedure: as §1
`O=C1CCC[C@@H]2[C@H]3CCCN4CCC[C@@H](CN12)[C@@H]34` [Matrine, matrine] was tested, and the IC50 was > 100 µM.

What follows are compounds tested on HpeG-2 cells (assay: MTT tumor cell growth inhibition, HpeG-2). Details: 48 h, read-out: Tumors growth-inhibitory activity (IC50) HpeG-2.
Type: cell-based
Procedure: as §1
`O=C1CCC[C@@H]2[C@H]3CCCN4CCC[C@@H](CN12)[C@@H]34` [Matrine, matrine] showed an IC50 of 50 to 100 µM.

What follows are compounds tested on k562 cells (assay: MTT tumor cell growth inhibition, k562). Details: Homo sapiens, 48 h, read-out: Tumors growth-inhibitory activity (IC50) k562.
Type: cell-based
Procedure: as §1
For `O=C1CCC[C@@H]2[C@H]3CCCN4CCC[C@@H](CN12)[C@@H]34` [Matrine, matrine], the IC50 was > 100 µM.

These compounds were tested on A549 cells (assay: MTT tumor cell growth inhibition, A549). Details: Homo sapiens, 48 h, read-out: Tumors growth-inhibitory activity (IC50) A549.
Type: cell-based
Procedure: as §1
For `O=C1CCC[C@@H]2[C@H]3CCCN4CCC[C@@H](CN12)[C@@H]34` [Matrine, matrine], the IC50 was > 100 µM.

These compounds were tested on Panc-1 cells (assay: MTT tumor cell growth inhibition, Panc-1). Details: Homo sapiens, 48 h, read-out: Tumors growth-inhibitory activity (IC50) Panc-1.
Type: cell-based
Procedure: as §1
In the case of `O=C1CCC[C@@H]2[C@H]3CCCN4CCC[C@@H](CN12)[C@@H]34` [Matrine, matrine], the IC50 is reported as > 100 µM.
